Results: patent US7691572B2, “Method and kit for detecting resistance to antiviral drugs” (priority 1998, dated 2010)
pIC50: −log10 of the molar value.

Columns and labels:
Type in all cases: biochemical
[1] = system: HIV-1 reverse transcriptase; experiment: Amp-RT assay, inhibition by 3TC-TP, reference viruses
Description: (§1) The phenotypic assay used in this example was based on the analysis of the susceptibility of HIV-1 reverse transcriptase activity from plasma to inhibition by 3TC-TP.
The assay detects reverse transcriptase activity by using a nonretroviral heteropolymeric RNA template derived from the encephalomyocarditis virus (EMCV) genome, and a complementary EMCV-specific DNA oligoprimer. The RT-generated EMCV cDNA is detected by PCR amplification and internal oligoprobing of the PCR product with an EMCV-specific probe.
(§2) Amp-RT detects reverse transcriptase activity by using a heterologous RNA template derived from the encephalomyocarditis virus (EMCV), a complementary DNA oligoprimer, and PCR amplification of reverse transcriptase-generated EMCV cDNA. […] To determine the susceptibility of the reverse transcriptase to 3TC-TP, an additional Amp-RT reaction was made in the presence of 3TC-TP, with concentrations of 3TC-TP ranging from 0.1 to 10 μM. […] PCR amplification of reverse transcriptase products was made as follows after the addition of 200 μM of each dNTP. A volume of 50 μl of PCR buffer containing 2.5 units of Taq polymerase, 100 ng of the sense primer EMCF1, and 200 μM of each dNTP was added to the reverse transcriptase mixture.
(§3) Wild type HIV-1SUM9, and multiple dideoxy nucleoside-resistant HIV-1SUM8 (Q151M mutation), HIV-1SUM12 (F77L/F116Y/Q151M) and HIV-1SUM13 (A62V/V751/F77L/F116Y/Q151M) MICs were provided by Dr. Mitsuya as described by Shirasaka et al., Proc. Natl. Acad. Sci. USA 92: 2398-2402 (1995). The synthesis and preparation of 3TC-TP were carried out as described by Schinazi et al., Antimicrob. Agents Chemother. 36: 2423-2431 (1992). The crude 3TC-5-TP was purified by FPLC using a HiLoad 26/10Q Sepharose Fast Flow™ Pharmacia chromatography column (Pharmacia, Piscataway, N.J.) and gradient of TEAE buffer (pH 7.0). The compound was characterized by UV spectroscopy, proton and phosphorous NMR, mass spectroscopy and HPLC.
Inhibition of reverse transcriptase by 3TC-TP results from the ability of 3TC-TP to act as a competitive inhibitor for 2′-deoxycytidine-5′-triphosphate (dCTP) and chain terminator as described by Arts and Wainberg, Antimicrob. Agents Chemother. 40: 527-540 (1996). To determine the optimal ratio of 3TC-TP and dCTP needed to inhibit wild type HIV-1 reverse transcriptase, but not 3TC-resistant reverse transcriptase, reverse transcriptase were tested from a wild type (xxBRUpitt) and a 3TC-resistant (M184Vpitt) HIV-1 in the presence of increasing concentrations of 3TC-TP (from 0.1 to 10 μM) and a fixed concentration of dCTP (5 μM).

[2] = system: plasma HIV-1 reverse transcriptase; experiment: Amp-RT assay, inhibition by 3TC-TP, plasma samples of patients; conditions: for Inhibition of RT(%): 5 uM 3TC-TP
Experimental: as §1
For culture supernatant, 10 μl were directly used for the reverse transcriptase reaction. The analysis of phenotypic resistance in plasma samples was made in plasma-free virus pellets as described in the protocol set forth in FIG. 1B.
as §2
A total of 30 EDTA-plasma samples from 15 HIV-1-infected patients from the Veteran Administration Medical Center, Decatur, Ga., were studied. The samples were collected from patients before and during anti-retroviral therapy with 3TC. The Amp-RT-based phenotypic assay was done under code with respect to date of serial bleed and reverse transcriptase genotype. One plasma specimen from a blood donor who tested antibody negative for HIV-1/2, HTLV-I/II was used as an assay negative control.

[3] = biological target: T1, recombinant p66/p51 HIV-1 reverse transcriptase (Human immunodeficiency virus type 1 group M subtype B, UniProt P04585); experiment: 3HdCTP incorporation assay with recombinant RT; conditions: read-out: concentration resulting in 50% inhibition of incorporation of 3HdCTP; (rI)n-dC12-18 template primer
T1 construct: recombinant p66/p51 HIV-1 reverse transcriptase; purchased Biotechnology General, Rehovot, Israel
Experimental: as §3

[4] = 5 μM 3TC-TP, wild type HIV-1, 10^−6 units of RT activity
[5] = 5 μM 3TC-TP, pretreatment samples (n=12)
[6] = sample 1E, 12 weeks, AZT/3TC, V/M184
[7] = sample 1F, 18 weeks, AZT/3TC, V184
[8] = sample 2F, 12 weeks, AZT/3TC, V184
[9] = sample 3F, 12 weeks, AZT/3TC, M/V184
[10] = sample 3G, 21 weeks, AZT/3TC, V184
[11] = sample 6B, 12 weeks, AZT/3TC, V184
[12] = sample 8B, 8 weeks, AZT/3TC, V184
[13] = sample 9F, 12 weeks, AZT/3TC, V184
[14] = sample 10A, 4 weeks, AZT/3TC, M184
[15] = sample 10C, 12 weeks, AZT/3TC, M/V184
[16] = sample 10G, 52 weeks, AZT/3TC, V184
[17] = sample 11A, 12 weeks, AZT/3TC, V/M184
[18] = sample 11C, 36 weeks, AZT/3TC, V184
[19] = sample 12E, 28 weeks, AZT/3TC, V184
[20] = sample 13A, Pre, d4T, M184, N69, R70
[21] = sample 13F, 60 weeks, d4T/3TC/IND, V184
[22] = sample 14A, 1 week, AZT/3TC, M184, D69
[23] = sample 14F, 44 weeks, IND/3TC, V184
[24] = sample 15A, Pre, AZT, M184, D69
[25] = sample 15D, 40 weeks, AZT/3TC/IND, V184
[26] = 5 μM 3TC-TP, samples with 184V only
[27] = 5 μM 3TC-TP, samples with mixtures of wild type and resistant genotypes

## Nc1ccn([C@@H]2CS[C@H](COP(=O)(O)OP(=O)(O)OP(=O)(O)O)O2)c(=O)n1 [3TC-TP, 3TC-5′-triphosphate]
[1]; 5 μM 3TC-TP, 3TC-resistant HIV-1 (M184Vpitt), high or low input of RT
  inhibition of reverse transcriptase: No significant inhibition
[1]; 5 μM 3TC-TP, mixture with 25% 3TC-resistant (M184Vpitt) virus in wild type xxBRUpitt
  inhibition of RT activity: 87%
[1]; 5 μM 3TC-TP, mixture with 75% 3TC-resistant (M184Vpitt) virus in wild type xxBRUpitt
  inhibition of RT activity: 26%
[1]; [4]
  drop in Amp-RT virus load: 2.35 log10
  residual reverse transcriptase activity (of control without 3TC-TP): 0.4%
[1]; 5 μM 3TC-TP, wild type xxBRUpitt, 10^−7 and 10^−8 units of RT activity
  inhibition of reverse transcriptase: complete inhibition
[1]; HIV-1SUM8 (Q151M)
  IC90 relative to reference viruses: approximately two-fold higher
[1]; HIV-1SUM12, three MD resistance mutations (F77L/F116Y/Q151M)
  increase in IC50 compared to wild type virus: six-
[1]; HIV-1SUM13, all five MD resistance mutations
  increase in IC50 compared to wild type virus: eight-fold
[2]; [5]
  mean reverse transcriptase inhibition: 98.7%
  median reverse transcriptase inhibition: 99.8%
[2]; sample 1B, Pre, AZT/ddC, M184
  Inhibition of RT(%): 100%
[2]; [6]
  Inhibition of RT(%): 75.6%
  RT activity With 3TC-TP (5 uM): 5.1 × 10^−7 units/ml
[2]; [7]
  Inhibition of RT(%): 75.9%
  RT activity With 3TC-TP (5 uM): 3.3 × 10^−8 units/ml
[2]; sample 2B, Pre, AZT/ddC, M184
  Inhibition of RT(%): 99.7%
  RT activity With 3TC-TP (5 uM): 6.3 × 10^−9 units/ml
[2]; [8]
  Inhibition of RT(%): 68%
  RT activity With 3TC-TP (5 uM): 4.7 × 10^−7 units/ml
[2]; sample 3B, Pre, AZT, M184
  Inhibition of RT(%): 99.4%
  RT activity With 3TC-TP (5 uM): 1.7 × 10^−8 units/ml
[2]; [9]
  Inhibition of RT(%): 92.3%
  RT activity With 3TC-TP (5 uM): 1.2 × 10^−9 units/ml
[2]; [10]
  Inhibition of RT(%): 0%
  RT activity With 3TC-TP (5 uM): 1.0 × 10^−8 units/ml
[2]; sample 4A, Pre, AZT, M184
  Inhibition of RT(%): 99.9%
  RT activity With 3TC-TP (5 uM): 1.2 × 10^−10 units/ml
[2]; sample 5A, Pre, AZT, M184
  Inhibition of RT(%): 100%
[2]; sample 6A, Pre, None, M184
  Inhibition of RT(%): 99.9%
  RT activity With 3TC-TP (5 uM): 3.6 × 10^−8 units/ml
[2]; [11]
  Inhibition of RT(%): 34.7%
  RT activity With 3TC-TP (5 uM): 1.5 × 10^−5 units/ml
[2]; sample 7A, Pre, None, M/I184
  Inhibition of RT(%): 100%
[2]; sample 8A, Pre, AZT, M184
  Inhibition of RT(%): 99.9%
  RT activity With 3TC-TP (5 uM): 5.7 × 10^−8 units/ml
[2]; [12]
  Inhibition of RT(%): 15%
  RT activity With 3TC-TP (5 uM): 4.3 × 10^−5 units/ml
[2]; sample 9A, Pre, d4T, M184
  Inhibition of RT(%): 97.8%
  RT activity With 3TC-TP (5 uM): 6.3 × 10^−8 units/ml
[2]; [13]
  Inhibition of RT(%): 47%
  RT activity With 3TC-TP (5 uM): 1.1 × 10^−6 units/ml
[2]; [14]
  Inhibition of RT(%): 87.8%
  RT activity With 3TC-TP (5 uM): 9.1 × 10^−6 units/ml
[2]; [15]
  Inhibition of RT(%): 0%
  RT activity With 3TC-TP (5 uM): 1.9 × 10^−7 units/ml
[2]; [16]
  Inhibition of RT(%): 0%
  RT activity With 3TC-TP (5 uM): 3.5 × 10^−5 units/ml
[2]; [17]
  Inhibition of RT(%): 29.1%
  RT activity With 3TC-TP (5 uM): 1.3 × 10^−7 units/ml
[2]; [18]
  Inhibition of RT(%): 58.5%
  RT activity With 3TC-TP (5 uM): 7.0 × 10^−8 units/ml
[2]; sample 12A, Pre, AZT, M184
  Inhibition of RT(%): 96.3%
  RT activity With 3TC-TP (5 uM): 9.2 × 10^−7 units/ml
[2]; [19]
  Inhibition of RT(%): 70%
  RT activity With 3TC-TP (5 uM): 5.1 × 10^−7 units/ml
[2]; [20]
  Inhibition of RT(%): 95.9%
  RT activity With 3TC-TP (5 uM): 6.2 × 10^−8 units/ml
[2]; [21]
  Inhibition of RT(%): 0%
  RT activity With 3TC-TP (5 uM): 7.4 × 10^−5 units/ml
[2]; [22]
  Inhibition of RT(%): 94.7%
  RT activity With 3TC-TP (5 uM): 1.3 × 10^−8 units/ml
[2]; [23]
  Inhibition of RT(%): 0%
  RT activity With 3TC-TP (5 uM): 5.1 × 10^−9 units/ml
[2]; [24]
  Inhibition of RT(%): 95.5%
  RT activity With 3TC-TP (5 uM): 4.0 × 10^−6 units/ml
[2]; [25]
  Inhibition of RT(%): 0%
  RT activity With 3TC-TP (5 uM): 2.4 × 10^−10 units/ml
[2]; 5 μM 3TC-TP, samples after 1 to 60 weeks of therapy with 3TC (n=18)
  reverse transcriptase inhibition values: less than 95%
[2]; [26]
  mean inhibition: 30.8%
  median inhibition: 24.9%
[2]; [27]
  mean inhibition: 49.3%
  median inhibition: 52.4%
[3]
  pIC50: 5.89
